Data reported in patent US11578055B2, “Triazacyclododecansulfonamide (“TCD”)-based protein secretion inhibitors” (KEZAR LIFE SCIENCES, priority 2018, dated 2023).
Like-named read-outs stand apart in the source and are kept apart here.

What was measured:
[1] = system: multiple myeloma cell line U266B1; assay: U266 Cell Viability Assay; type: cell-based, human; conditions: Homo sapiens, U-266, 48 hr
Method: (§1) The human multiple myeloma cell line U266B1 was cultured in RPMI 1640 media supplemented with 10% fetal bovine serum, 2 mM Glutamine, and 1× Penicillin/Streptomycin. Cells were plated in 384-well tissue culture plates and treated with compound dilutions in DMSO/media. Plates were incubated at 37° C., 5% CO2 for 48 hours. After 48 hours, Celltiter-Glo® (Promega) was added to each well and luciferase signal was quantified using Tecan Infinite M1000 Pro for cell viability determination.
For chemical structures that include one or more stereoisomers, but are illustrated without indicating stereochemistry, the assay data refers to a mixture of stereoisomers

[2] = system: PD1 signal sequence plus 10 amino acids fused to Gaussia Luciferase (PD1-ss+10aa/Gaussia Luciferase); assay: Dox Induced PD1-ss-Gluc Assay; type: cell-based; conditions: 24 hr, read-out: 24 hr Dox Inducible PD1ssGluc 293FRT/TO: Mean IC50
Description: FIp-In 293 T-REx™ cells were transfected with pcDNA™5/FRT/TO plasmid inserted with cDNA encoding Gaussia Luciferase fused to the 3′ end of cDNA encoding PD1 signal sequence plus 10 amino acids (N-[…]-C) (SEQ ID NO: 1). Transfected cells were selected for resistance to the selectable markers Hygromycin and Blasticidin to create a stable cell line that contained the PD1-ss+10aa/Gaussia Luciferase cDNA insert whose expression was regulated under the T-REx™ system. The day before assay, cells were trypsinized and plated in 384-well tissue culture plates. The next day, compound dilutions in DMSO/media containing doxycycline were added to the wells and incubated at 37° C., 5% CO2.
(§2) For chemical structures that include one or more stereoisomers, but are illustrated without indicating stereochemistry, the assay data refers to a mixture of stereoisomers.

[3] = In Vitro Microsome Stability Assay (human); type: in vitro ADME
Method: (§3) Potassium phosphate (423 μL of a 0.1 M solution) was added to 8-strip deep well tubes followed by human, mouse, rat, or monkey microsomes (25 μL of a 20 mg/mL solution). The tubes were then placed on ice and the test article (2 μL of a 0.25 mM solution in DMSO) was added. The mixture was preincubated at 37° C. for 3 to 5 minutes (shaking at 150 rpm) then the reaction was initiated by adding 50 μL NADPH. An aliquot of samples (100 μL) were collected at 0 and 30 min and 200 μL of an acetonitrile mixture containing IS (compound 914) was added to quench the reaction. After centrifuging for 10 min at 4000 rpm, a mixed solution of the 20 μL of the supernatant (20 μL) plus 100 μL ACN/H2O (1:1) were injected for LC-MS/MS analysis. Liver microsome stability is assessed by the % remaining of compound at 30 min which is calculated using the following equation: [(AUCanalyteT=30/AUCIS)/(AUCanalyteT=0/AUCIS)]*100
as §2

[4] = system: multiple myeloma cell line NCl-H929; assay: H929 Cell Viability Assay; type: cell-based, human; conditions: Homo sapiens, NCI-H929, 48 h
Method: as §1, with “NCl-H929” for “U266B1”, “cultured in Advanced RPMI 1640 media (Gibco®) supplemented with 6% fetal bovine serum, 2 mM Glutamine, and 1× Penicillin/Streptomycin. On the day of assay, cells were resuspended” for “cultured”, “Penicillin/Streptmycin and” for “Penicillin/Streptomycin. Cells were”
as §2

[5] = In Vitro Microsome Stability Assay (mouse); type: in vitro ADME
Method: as §3, §2

[6] = In Vitro Microsome Stability Assay (monkey); type: in vitro ADME
Method: as §3, §2

[7] = system: full length TNFα (amino acids 1-233) fused to Gaussia Luciferase; assay: Dox Induced TNFα-FL-Gluc Assay; type: cell-based; conditions: 24 hr, read-out: 24 hr Dox Inducible TNFaFLGluc 293FRT/TO: Mean IC50
Description: FIp-In 293 T-REx™ cells were transfected with pcDNA™5/FRT/TO plasmid inserted with cDNA encoding Gaussia Luciferase fused to the 3′ end of cDNA encoding full length TNFα (amino acids 1-233). Transfected cells were selected for resistance to the selectable markers Hygromycin and Blasticidin to create a stable cell line that contained the TNFα-FL/Gaussia Luciferase cDNA insert whose expression was regulated under the T-REx™ system. The day before assay, cells were trypsinized and plated in 384-well tissue culture plates. The next day, compound dilutions in DMSO/media containing doxycycline were added to the wells and incubated at 37° C., 5% CO2.
as §2

[8] = In Vitro Microsome Stability Assay (rat); type: in vitro ADME
Method: as §3, §2

[9] = U266, read-out: 48 hr U266 Viability Celltiter-Glo: Mean EC50
[10] = H929, read-out: 48 hr H929 Viability Celltiter-Glo: Mean EC50

| EC50 [1, 9] [µM] | IC50 ([2]; 293FRT/TO) [µM] | Liver Microsome Stability-% Left after 30 min w/ NADPH (%) Human ([3]; human, 30 min, NADPH) [%] | EC50 [4, 10] [µM] | Liver Microsome Stability-% Left after 30 min w/ NADPH (%) Mouse ([5]; mouse, 30 min, NADPH) [%] | Liver Microsome Stability-% Left after 30 min w/ NADPH (%) Monkey ([6]; monkey, 30 min, NADPH) [%] | IC50 ([7]; 293FRT/TO) [µM] | Liver Microsome Stability-% Left after 30 min w/ NADPH (%) Rat ([8]; rat, 30 min, NADPH) [%] | EC50 ([1]; U266, Celltiter-Glo) [µM] | IC50 ([2]; Dox inducible, 293FRT/TO cells) [µM] | Liver Microsome Stability-% Left after 30 min w/ NADPH (%) Human ([3]; human liver microsomes, 30 min w/ NADPH) [%] | EC50 ([4]; H929, Celltiter-Glo) [µM] | Liver Microsome Stability-% Left after 30 min w/ NADPH (%) Mouse ([5]; mouse liver microsomes, 30 min w/ NADPH) [%] | Liver Microsome Stability-% Left after 30 min w/ NADPH (%) Monkey ([6]; monkey liver microsomes, 30 min w/ NADPH) [%] | IC50 ([7]; Dox inducible, 293FRT/TO cells) [µM] | Liver Microsome Stability-% Left after 30 min w/ NADPH (%) Rat ([8]; rat liver microsomes, 30 min w/ NADPH) [%] | Structure (SMILES) |
| --- | --- | --- | --- | --- | --- | --- | --- | --- | --- | --- | --- | --- | --- | --- | --- | --- |
| > 25 | 0.991 | 0.19 | > 25 | 0.07 | 0.1 | > 25 | 0.4 | – | – | – | – | – | – | – | – | C=C1CN(S(=O)(=O)c2ccc(N(C)C)cc2)CCCN(CC2CCCCC2)CCCN(S(=O)(=O)N2CCN(c3ccccc3)C(=O)C2)C1 [A48, 4-{[9-(cyclohexylmethyl)-5-[4-(dimethylamino)benzenesulfonyl]-3-methylidene-1,5,9-triazacyclododecan-1-yl]sulfonyl}-1-phenylpiperazin-2-one] |
| > 25 | 0.0282 | 39.3 | 0.96 | 23.4 | 34.9 | 0.961 | 47.6 | – | – | – | – | – | – | – | – | C=C1CN(S(=O)(=O)c2ccc(N(C)C)cc2)CCCN(CC2CCCCC2)CCCN(S(=O)(=O)N2CCN(c3ccccc3Cl)CC2)C1 [A83, 4-[(5-{[4-(2-chlorophenyl)piperazin-1-yl]sulfonyl}-9-(cyclohexylmethyl)-3-methylidene-1,5,9-triazacyclododecan-1-yl)sulfonyl]-N,N-dimethylaniline] |
| > 25 | 0.956 | 13.3 | > 25 | 17.9 | 8.96 | > 25 | 19.6 | – | – | – | – | – | – | – | – | COC1CN(S(=O)(=O)c2ccc(N(C)C)cc2)CCCN(CC2CCCCC2)CCCN(S(=O)(=O)N2CCC(c3ccccc3)CC2)C1 (stereo not shown) [A61, 4-{[9-(cyclohexylmethyl)-3-methoxy-5-[(4-phenylpiperidin-1-yl)sulfonyl]-1,5,9-triazacyclododecan-1-yl]sulfonyl}-N,N-dimethylaniline] |
| – | – | – | – | – | – | – | – | > 25 | 0.794 | 5.43 | > 25 | 3.41 | 1.73 | > 25 | 11.1 | CN(C)c1ccc(S(=O)(=O)N2CCCN(CC3CCCCC3)CCCN(S(=O)(=O)N3CCC(c4ccccc4)CC3)CC(=O)C2)cc1 [B20, 9-(cyclohexylmethyl)-1-((4-(dimethylamino)phenyl)sulfonyl)-5-((4-phenylpiperidin-1-yl)sulfonyl)-1,5,9-triazacyclododecan-3-one] |
| > 25 | 0.207 | 0.05 | 12.8 | 0.07 | 0.06 | > 25 | 0.19 | – | – | – | – | – | – | – | – | CC1CCCCN1S(=O)(=O)N1CCCN(CC2CCCCC2)CCCN(S(=O)(=O)c2ccc(N(C)C)cc2)CC2(CC2)C1 (stereo not shown) [A20, 4-{[9-(cyclohexylmethyl)-13-[(2-methylpiperidin-1-yl)sulfonyl]-5,9,13-triazaspiro[2.11]tetradecan-5-yl]sulfonyl}-N,N-dimethylaniline] |
| > 25 | 0.0875 | 25.6 | > 25 | 52.2 | 42.9 | > 25 | 64.9 | – | – | – | – | – | – | – | – | C=C1CN(S(=O)(=O)c2ccc(N(C)C)cc2)CCCN(CC2CCCCC2)CCCN(S(=O)(=O)N2CCN(c3ccc(Cl)cc3)CC2)C1 [A85, 4-[(5-{[4-(4-chlorophenyl)piperazin-1-yl]sulfonyl}-9-(cyclohexylmethyl)-3-methylidene-1,5,9-triazacyclododecan-1-yl)sulfonyl]-N,N-dimethylaniline] |
| > 25 | 0.273 | 10.8 | > 25 | 13.4 | 2.56 | > 25 | 14.1 | – | – | – | – | – | – | – | – | C=C1CN(S(=O)(=O)c2ccc(N(C)C)cc2)CCCN(CC2CCCCC2)CCCN(S(=O)(=O)N2CCC(c3nc4ccccc4o3)CC2)C1 [A80, 4-[(5-{[4-(1,3-benzoxazol-2-yl)piperidin-1-yl]sulfonyl}-9-(cyclohexylmethyl)-3-methylidene-1,5,9-triazacyclododecan-1-yl)sulfonyl]-N,N-dimethylaniline] |
| > 25 | 2.31 | 0.29 | 22.4 | 0.17 | 0.99 | > 25 | 0.23 | – | – | – | – | – | – | – | – | C=C1CN(S(=O)(=O)c2ccc(C)cc2)CCCN(CC2CCCCC2)CCCN(S(=O)(=O)C(C)C)C1 [A7, 9-(cyclohexylmethyl)-1-(4-methylbenzenesulfonyl)-3-methylidene-5-(propane-2-sulfonyl)-1,5,9-triazacyclododecane] |
| – | – | – | – | – | – | – | – | > 25 | – | – | 3.11 | – | – | – | – | COc1ccc(F)cc1N1CCN(S(=O)(=O)N2CCCN(CC3CCCCC3)CCCN(S(=O)(=O)c3ccc(N(C)C)cc3)C[C@H](C)C2)CC1 [A176] |
| > 25 | 5.25 | – | 10.4 | 0.06 | 0.06 | > 25 | 0.14 | – | – | – | – | – | – | – | – | CN(C)c1ccc(S(=O)(=O)N2CCCN(CC3CCCCC3)CCCN(S(=O)(=O)N3CCC(O)CC3)CC3(CC3)C2)cc1 [A28, 1-{[9-(cyclohexylmethyl)-13-[4-(dimethylamino)benzenesulfonyl]-5,9,13-triazaspiro[2.11]tetradecan-5-yl]sulfonyl}piperidin-4-ol] |
